{"source": "patent US20130217761A1", "about": "(Laboratorio Catarinense S/A, priority 2009, published 2013)", "key": {"isolated rabbit heart [1]": {"tested_on": "isolated rabbit heart", "experiment": "reversal of sustained electrically induced ventricular fibrillation, isolated rabbit heart (Langendorff preparation)", "settings": "added to perfusate", "procedure": "The thorax was rapidly opened by middle-sized incision, and the sternum beaten back for complete exposure of the inside of the thorax. […] A metallic cannula was then inserted and fixed to the proximal portion of the aorta, retrograde perfusion of oxygenated Krebs-Henseleit solution was initiated and heated up to 37° C. with constant flow of 13 mL/minute, kept by a continuous-infusion pump, Harvard Apparatus model RS232. The cannula tip was positioned quite close to the aortic valve to permit adequate coronary perfusion.\nThe heart was then removed and suspended through the cannula in a classic Langenhorff preparation. The Krebs Henseleit composition used was: 115 mM NaCl; 5.4 mM KCL; 1.25 mM CaCl2; 25 mM NaHCO3; 1.2 mM MgSO4; 1.5 mM NaH2PO4 and 11 nM glucose. […]"}, "isolated rabbit heart [2]": {"tested_on": "isolated rabbit heart", "experiment": "re-induction of ventricular fibrillation after reversal (protective effect), isolated rabbit heart", "settings": "new attempt to induce ventricular fibrillation 5 minutes after reversal", "experimental": "In order to carry out the experiments, twenty-seven male and female white New Zealand rabbits, weighing 2.5-3.5 kg, received 100 Ul/kg of intravenous heparin and were killed by cervical displacement.\nThe thorax was rapidly opened by middle-sized incision, and the sternum beaten back for complete exposure of the inside of the thorax. The pericardium was removed and the rising part of the aorta was isolated and repaired with a cotton thread 3-0. A metallic cannula was then inserted and fixed to the proximal portion of the aorta, retrograde perfusion of oxygenated Krebs-Henseleit solution was initiated and heated up to 37° C. with constant flow of 13 mL/minute, kept by a continuous-infusion pump, Harvard Apparatus model RS232. The cannula tip was positioned quite close to the aortic valve to permit adequate coronary perfusion.\nThe heart was then removed and suspended through the cannula in a classic Langenhorff preparation. […]\nTwo pairs of electrodes (Monicron 2-O) were saturated on the LV: one at the tip, called proximal (P) and the other at the branching of front descending coronary artery branching with the first diagonal, called distal (D). […] The cardiac frequency was determined by measuring the interval between two consecutive electrograms and transformed into beats per minute (bpm). […]"}}, "data": [{"smiles": "CCCCc1oc2ccccc2c1C(=O)c1cc(I)c(OCCN(CC)CC)c(I)c1", "note": "[amiodarone]", "values": [{"measurement": "reversal of sustained ventricular fibrillation (in words)", "setting": "isolated rabbit heart [1]", "value": "do not have any effect"}]}, {"smiles": "CCN(CC)CC(=O)Nc1c(C)cccc1C", "note": "[lidocain]", "values": [{"measurement": "prevention of re-induction of ventricular fibrillation by electric stimulus", "setting": "isolated rabbit heart [2]", "value": "does not prevent the reinduction"}]}, {"smiles": "CC(C)NCC(O)COc1cccc2ccccc12", "note": "(stereo not drawn) [propranolol]", "values": [{"measurement": "reversal of sustained ventricular fibrillation (in words)", "setting": "isolated rabbit heart [1]", "value": "do not have any effect"}]}]}
